Assay [1] can be described thus: cells. To be noted: Homo sapiens, 72 h. The assay is classed as functional, cell-based.
Description: Antiproliferative activity against human UMCHOR1 cells measured after 72 hrs by alamar blue assay
For assay [2], the target named is T1, STE20-related kinase adapter protein alpha (Homo sapiens) (UniProt Q7RTN6).
T1 sequence (whole entry): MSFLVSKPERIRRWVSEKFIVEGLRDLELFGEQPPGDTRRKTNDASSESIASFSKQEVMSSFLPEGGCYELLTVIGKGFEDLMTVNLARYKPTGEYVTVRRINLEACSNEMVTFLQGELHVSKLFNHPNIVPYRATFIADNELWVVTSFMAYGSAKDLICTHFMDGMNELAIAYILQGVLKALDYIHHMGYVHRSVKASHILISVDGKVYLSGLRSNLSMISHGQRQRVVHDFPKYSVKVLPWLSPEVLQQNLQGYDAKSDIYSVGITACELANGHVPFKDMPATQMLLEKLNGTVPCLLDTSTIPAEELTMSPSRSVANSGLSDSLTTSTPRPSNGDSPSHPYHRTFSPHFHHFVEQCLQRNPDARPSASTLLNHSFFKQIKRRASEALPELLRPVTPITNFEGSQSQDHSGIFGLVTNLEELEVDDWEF
The assay is described as follows: Binding affinity to LYK5 in human SUM159 cell lysates by multiplexed inhibitor bead profiling-based LC-MS/MS analysis. Particulars: Lysate. The assay is classed as subcellular.

Assay [3] has as its target T2, Cyclin-G-associated kinase (Homo sapiens, UniProt O14976).
T2 sequence (O14976 whole entry): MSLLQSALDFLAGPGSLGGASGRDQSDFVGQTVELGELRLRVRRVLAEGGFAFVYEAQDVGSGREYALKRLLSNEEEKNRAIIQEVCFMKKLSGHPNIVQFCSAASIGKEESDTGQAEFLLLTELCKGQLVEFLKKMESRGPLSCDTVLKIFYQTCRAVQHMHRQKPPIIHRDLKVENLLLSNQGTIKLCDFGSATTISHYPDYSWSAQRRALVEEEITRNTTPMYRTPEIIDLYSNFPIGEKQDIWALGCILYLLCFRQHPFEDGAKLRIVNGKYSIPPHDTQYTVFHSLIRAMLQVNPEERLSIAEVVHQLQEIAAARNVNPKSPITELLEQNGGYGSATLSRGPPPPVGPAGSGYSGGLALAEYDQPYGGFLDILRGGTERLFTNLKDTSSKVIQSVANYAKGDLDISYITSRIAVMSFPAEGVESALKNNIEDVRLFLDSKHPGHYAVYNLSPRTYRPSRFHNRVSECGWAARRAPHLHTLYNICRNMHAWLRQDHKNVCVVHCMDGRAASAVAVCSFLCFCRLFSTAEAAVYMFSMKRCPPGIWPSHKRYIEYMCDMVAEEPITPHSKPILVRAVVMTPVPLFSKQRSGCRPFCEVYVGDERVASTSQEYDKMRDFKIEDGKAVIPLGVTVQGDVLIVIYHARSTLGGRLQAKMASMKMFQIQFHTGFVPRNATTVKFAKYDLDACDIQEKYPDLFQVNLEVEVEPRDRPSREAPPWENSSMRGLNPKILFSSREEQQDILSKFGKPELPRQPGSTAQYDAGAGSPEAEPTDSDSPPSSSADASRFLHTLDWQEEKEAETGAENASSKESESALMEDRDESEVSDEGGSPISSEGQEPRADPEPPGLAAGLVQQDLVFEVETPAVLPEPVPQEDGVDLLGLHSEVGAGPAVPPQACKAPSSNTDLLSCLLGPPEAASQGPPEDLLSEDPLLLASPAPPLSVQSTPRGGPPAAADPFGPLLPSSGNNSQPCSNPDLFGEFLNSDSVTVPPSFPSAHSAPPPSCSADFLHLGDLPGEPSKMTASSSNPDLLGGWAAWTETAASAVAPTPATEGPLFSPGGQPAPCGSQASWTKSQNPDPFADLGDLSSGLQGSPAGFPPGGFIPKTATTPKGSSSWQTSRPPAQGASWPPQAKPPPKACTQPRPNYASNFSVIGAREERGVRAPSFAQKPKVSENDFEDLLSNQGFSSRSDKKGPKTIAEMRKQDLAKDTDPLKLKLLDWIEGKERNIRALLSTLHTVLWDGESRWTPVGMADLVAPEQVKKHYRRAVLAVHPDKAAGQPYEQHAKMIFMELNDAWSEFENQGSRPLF
The assay is described as follows: Inhibition of tracer 5 binding to human N-terminal nano luciferase-fused GAK expressed in HEK293 cells measured after 2 hrs by nanoBRET assay. The assay is classed as cell-based. To be noted: hek293. For orientation: Bioluminescence resonance energy transfer reports proximity on the nanometre scale.

Assay [4] deals with T3, Serine/threonine-protein kinase Nek1 (Homo sapiens) (UniProt Q96PY6).
T3 sequence (whole entry): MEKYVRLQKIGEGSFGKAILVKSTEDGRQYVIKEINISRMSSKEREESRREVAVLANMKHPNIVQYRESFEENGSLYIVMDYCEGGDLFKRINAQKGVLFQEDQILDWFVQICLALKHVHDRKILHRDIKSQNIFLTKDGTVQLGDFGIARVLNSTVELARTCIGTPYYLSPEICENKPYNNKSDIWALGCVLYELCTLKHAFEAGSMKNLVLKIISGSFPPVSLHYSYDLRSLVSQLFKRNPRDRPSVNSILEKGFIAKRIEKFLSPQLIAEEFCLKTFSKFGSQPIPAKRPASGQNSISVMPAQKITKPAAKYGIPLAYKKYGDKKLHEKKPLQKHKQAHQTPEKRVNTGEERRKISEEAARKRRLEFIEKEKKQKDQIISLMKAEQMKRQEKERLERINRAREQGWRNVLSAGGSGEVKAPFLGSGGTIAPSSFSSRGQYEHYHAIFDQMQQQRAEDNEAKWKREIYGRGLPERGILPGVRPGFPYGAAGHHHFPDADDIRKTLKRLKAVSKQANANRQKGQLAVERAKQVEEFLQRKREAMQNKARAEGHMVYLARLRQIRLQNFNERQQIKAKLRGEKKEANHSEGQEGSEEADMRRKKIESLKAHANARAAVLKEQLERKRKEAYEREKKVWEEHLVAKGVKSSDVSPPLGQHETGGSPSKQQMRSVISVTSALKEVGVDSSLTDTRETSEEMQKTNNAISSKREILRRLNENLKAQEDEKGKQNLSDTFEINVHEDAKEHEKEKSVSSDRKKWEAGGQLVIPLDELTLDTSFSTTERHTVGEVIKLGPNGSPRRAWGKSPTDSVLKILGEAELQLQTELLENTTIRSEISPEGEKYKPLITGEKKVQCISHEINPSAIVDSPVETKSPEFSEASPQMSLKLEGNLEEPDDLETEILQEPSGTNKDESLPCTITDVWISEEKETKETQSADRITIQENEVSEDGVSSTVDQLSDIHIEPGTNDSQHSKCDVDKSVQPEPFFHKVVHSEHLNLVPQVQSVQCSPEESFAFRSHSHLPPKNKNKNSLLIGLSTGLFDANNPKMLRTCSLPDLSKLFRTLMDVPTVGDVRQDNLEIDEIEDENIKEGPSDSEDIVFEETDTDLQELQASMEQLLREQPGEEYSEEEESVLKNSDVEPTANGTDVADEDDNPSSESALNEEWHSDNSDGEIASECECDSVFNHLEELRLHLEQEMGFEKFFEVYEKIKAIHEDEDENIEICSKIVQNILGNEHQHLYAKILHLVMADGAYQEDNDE
The assay is described as follows: Binding affinity to NEK1 in human SUM159 cell lysates by multiplexed inhibitor bead profiling-based LC-MS/MS analysis. Type of assay: subcellular. Particulars: Lysate.

Calls of active or inactive are those of the source. No cut-off for these calls is given here.

As for `C#Cc1cccc(Nc2ccnc3cc(OC)c(OC)cc23)c1`, the IC50 (in general, the concentration that inhibits the measured activity by half) in assay [1] came out at 14 µM; in assay [3] it was 0.5 µM. For the same molecule, the outcome in assay [2] and in assay [4] was Active.

For the origin of these results see ChEMBL document CHEMBL4393671, “Design of a Cyclin G Associated Kinase (GAK)/Epidermal Growth Factor Receptor (EGFR) Inhibitor Set to Interrogate the Relationship of EGFR and GAK in Chordoma” (J Med Chem, 2019).
